Test results taken from patent publication US20160115540A1, “PRODRUGS AND DRUGS” (Biogen MA Inc., priority 2013, published 2016).
Where a name gives a salt, the structure may show the parent alone.

System: kidney
Test: Transcriptional profiling on Affymetrix GeneChips, single dose, naïve mice: kidney
Format: in vivo, C57BL/6 mice
Settings: 100MMF-vs-Veh
Experimental: Treated mice were sacrificed at 2, 7, or 12 hours. Tissues (liver, spleen, kidney, jejunum, cortex, hippocampus, striatum and whole blood) were collected and analyzed by transcriptional profiling on mouse Affymetrix GeneChips.
Tissues (liver, spleen, kidney, jejunum, cortex, hippocampus, striatum and whole blood) were collected and analyzed by transcriptional profiling on mouse Affymetrix GeneChips.
Animals were exposed to CO2 and whole blood collected via cardiac puncture. Two 100 μl aliquots of whole blood were collected in 1.5 mL microcentrifuge tubes and snap frozen in liquid nitrogen. Peripheral (liver, spleen, kidney and jejunum) and CNS brain (cerebellum, hippocampus, striatum and cortex) tissues were harvested and snap frozen in liquid nitrogen, with special care taken to collect tissues of similar size and from the same location. All samples were stored at −80° C. until RNA extraction was conducted.
For RNA preparation, frozen tissues were placed in 2 mL RNAse-free 96-well blocks with 1.5 mL QIAzol Lysis Reagent (QIAgen) and a 3.2 mm stainless steel bead (BioSpec Products, Bartlesville, Okla.). Tissues were disrupted for four cycles of 45 seconds in a Mini-Beadbeater (Biospec Products). RNA was extracted in chloroform and the aqueous phase was mixed with an equal volume of 70% ethanol. Extracted RNA was applied to RNeasy 96 plates and purified by the spin method according to the manufacturer's protocol (RNeasy 96 Universal Tissue Protocol, QIAgen, Hilden Germany).
Automated sample amplifications and biotin labelings were carried out using the NuGEN Ovation RNA Amplification system V2 (Cat #3100), Ovation WB reagent (Cat #1300) and Encore Biotin module (Cat #4200) (NuGEN Technologies, Inc, San Carlos, Calif.) according to manufacturer's recommendations using an Arrayplex automated liquid handler (Beckman Coulter, Indianapolis, Ind.). Two micrograms of biotin labeled sscDNA probe were hybridized to Affymetrix GeneChip Affymetrix HT_MG-430_PM plate arrays with modified conditions as described in Allaire et al. Washing and staining of the hybridized arrays were completed as described in the GeneChip Expression analysis technical manual for HT plate arrays using the Genechip® Array Station (Affymetrix, Santa Clara, Calif.) with modifications as described in Allaire et al. The processed GeneChip® plate arrays were scanned using GeneTitan scanner (Affymetrix, Santa Clara, Calif.).
Affymetrix scans were subject to quality control (QC) measures. These tests included a visual inspection of the distribution of raw signal intensities and an assessment of RNA degradation, relative log expression (RLE), and normalized unsealed standard error (NUSE). All sample scans that passed these QC metrics were included in the analysis.
All CEL files were subjected to GC-content-based Robust Multi-array Average (GCRMA) normalization (version 2.20.0) (Irizarry R A, et al. Nucleic Acids Res 2003; 31:e15; Li C, et al. Genome Biol 2001; 2:[…]0032). Expression levels were log (base 2) transformed.
All calculations and analyses were carried out using R (version 2.11.1) and Bioconductor computational tools (Gentleman R. Springer Science+Business Media 2005).

What does the source list for `COC(=O)/C=C/C(=O)O` [MMF, monomethyl fumarate]?
FC 1456319_PM_at (2 h): −2.06; FC 1456955_PM_at (2 h): 1.60; FC 1457189_PM_at (2 h): −1.70; FC 1457586_PM_at (2 h): 1.61; FC 1458096_PM_at (2 h): −1.87; FC 1458798_PM_at (2 h): −1.56; FC 1459091_PM_at (2 h): 2.78; FC 1459358_PM_at (2 h): 1.56; FC 1459516_PM_at (2 h): 1.71; FC 1459774_PM_at (2 h): 1.63; FC A330023F24Rik 1460033_PM_at (2 h): 1.50; FC AA986715 1459467_PM_at (2 h): 1.68; FC Akr1c19 (1455454_PM_at) (2 h): 1.56; FC Ankrd11 1458452_PM_at (2 h): 1.56; FC Arl5b 1455166_PM_at (2 h): 1.64; FC BC038331 1458295_PM_at (2 h): −1.57; FC Bcl7a 1458503_PM_at (2 h): −1.54; FC Cggbp1 1455658_PM_at (2 h): 1.51; FC Gclc (1455959_PM_s_at) (2 h): 1.53; FC LOC676974 1456909_PM_at (2 h): 1.57; FC LOC100504796 1457129_PM_at (2 h): −1.55; FC Lonrf1 1455665_PM_at (2 h): 1.98; FC Nufip2 1455387_PM_at (2 h): 1.61; FC Per3 1458176_PM_at (2 h): −1.57; FC Phf13 1455175_PM_at (2 h): 1.51; FC Pkp2 1460511_PM_at (2 h): 1.67; FC Ptprg 1456070_PM_at (2 h): −2.31; FC Snx29 1456922_PM_at (2 h): −1.74; FC Tnfsf10 1459913_PM_at (2 h): −1.60; FC Trib3 1456225_PM_x_at (2 h): 1.56; FC Zfp295 1457552_PM_at (2 h): 1.74; FC 1110032F04Rik 1456509_PM_at (7 h): 4.65; FC 1200003I10Rik /// 1200015M12Rik /// A130040M12Rik /// E430024C06Rik 1427932_PM_s_at (7 h): 1.63; FC 1300002K09Rik 1453234_PM_at (7 h): 1.98; FC 1444265_PM_at (7 h): 1.53; FC 1445668_PM_at (7 h): 1.55; FC 1447396_PM_at (7 h): −1.73; FC 1457594_PM_at (7 h): −1.52; FC 1459091_PM_at (7 h): 3.52; FC 2610034E01Rik 1460483_PM_at (7 h): 1.56; FC Abcc4 1443870_PM_at (7 h): 2.09; FC Abhd15 1453474_PM_at (7 h): 1.64; FC Acsl4 1451828_PM_a_at (7 h): 1.78; FC Agps 1434919_PM_at (7 h): −1.68; FC Agxt2l1 1452975_PM_at (7 h): −1.74; FC Akr1b8 (1448894_PM_at) (7 h): 1.86; FC Akr1c19 (1455454_PM_at) (7 h): 1.97; FC Alas1 1424126_PM_at (7 h): 1.51; FC Alcam 1426300_PM_at (7 h): 2.66; FC Alcam 1426301_PM_at (7 h): 2.09; FC Alcam 1437467_PM_at (7 h): 2.00; FC Aldh1a7 (1418601_PM_at) (7 h): 2.16; FC Aox1 (1419435_PM_at) (7 h): 2.50; FC Asns 1433966_PM_x_at (7 h): 2.13; FC Asns 1451095_PM_at (7 h): 2.23; FC Atp13a3 1442145_PM_at (7 h): 1.52; FC BC037032 1444682_PM_at (7 h): 1.69; FC Bcat1 1430111_PM_a_at (7 h): −1.59; FC Bcat1 1450871_PM_a_at (7 h): −1.83; FC Bcat1 1455699_PM_at (7 h): −2.29; FC Blvrb (1451386_PM_at) (7 h): 1.83; FC Btg1 1442018_PM_at (7 h): 1.60; FC Cbr1 (1460196_PM_at) (7 h): 1.58; FC Cbr3 (1427912_PM_at) (7 h): 9.54; FC Cenpe 1435005_PM_at (7 h): −1.60; FC Cml3 1421609_PM_a_at (7 h): −1.64; FC Copg2as2 1427123_PM_s_at (7 h): 1.56; FC Ctps 1416563_PM_at (7 h): 1.57; FC Cul9 1439866_PM_at (7 h): −1.52; FC Cyp51 1422533_PM_at (7 h): −1.54; FC Cyp51 1422534_PM_at (7 h): −1.59; FC D16Ertd778e 1445089_PM_at (7 h): −1.87; FC D330040H18Rik 1444432_PM_at (7 h): 1.77; FC Dbp (1418174_PM_at) (7 h): −1.73; FC Dbp (1438211_PM_s_at) (7 h): −1.63; FC Ddit4l 1439332_PM_at (7 h): 1.83; FC Ddit4l 1444139_PM_at (7 h): 1.85; FC Ddit4l 1451751_PM_at (7 h): 2.62; FC Dnase2a (1430135_PM_at) (7 h): 2.20; FC Dusp5 1437199_PM_at (7 h): 1.74; FC Eif4ebp1 1434976_PM_x_at (7 h): 1.56; FC Endou 1449937_PM_at (7 h): 1.52; FC Esr1 1460591_PM_at (7 h): −1.54; FC Fam107a 1435918_PM_at (7 h): −1.77; FC Fbxl2 1428427_PM_at (7 h): −1.68; FC Fgf1 1441042_PM_at (7 h): −1.71; FC Fgf1 1450869_PM_at (7 h): −1.76; FC Fgfbp1 1419086_PM_at (7 h): 1.73; FC Frem2 1457038_PM_at (7 h): −1.66; FC G0s2 1448700_PM_at (7 h): 1.50; FC G6pd2 /// G6pdx 1422327_PM_s_at (7 h): 1.86; FC G6pdx (1448354_PM_at) (7 h): 1.75; FC Gclc (1424296_PM_at) (7 h): 1.87; FC Gclc (1455959_PM_s_at) (7 h): 1.81; FC Gclm 1418627_PM_at (7 h): 1.64; FC Gdf15 1418949_PM_at (7 h): 1.98; FC Gimap3 1449220_PM_at (7 h): −1.51; FC Gjb1 1448766_PM_at (7 h): 1.50; FC Gk5 1436210_PM_at (7 h): 1.55; FC Gm129 1435188_PM_at (7 h): −2.12; FC Gm3776 /// Gsta1 /// Gsta2 1421041_PM_s_at (7 h): 1.63; FC Gpr135 1441944_PM_s_at (7 h): 1.66; FC Gpr135 1459274_PM_at (7 h): 1.53
